How the values were obtained:
Mus musculus [1] = assay: Anticonvulsant activity in Mus musculus Swiss albino (mouse) assessed as protection against pentylenetetrazole-induced seizures at 100 mg/kg, ip administered 1 hr prior to pentylenetetrazole-challenge measured up to 1 hr relative to control; format: functional; conditions: route intraperitoneal
Mus musculus [2] = assay: Anticonvulsant activity in ip dosed Mus musculus Swiss albino (mouse) assessed as protection against pentylenetetrazole-induced seizures administered 1 hr prior to pentylenetetrazole-challenge measured up to 1 hr relative to phenobarbital; format: functional
Mus musculus [3] = assay: Anticonvulsant activity in Mus musculus Swiss albino (mouse) assessed as protection against pentylenetetrazole-induced seizures at 75 mg/kg, ip administered 1 hr prior to pentylenetetrazole-challenge measured up to 1 hr relative to control; format: functional; conditions: route intraperitoneal
Mus musculus [4] = assay: Anticonvulsant activity in Mus musculus Swiss albino (mouse) assessed as protection against pentylenetetrazole-induced seizures at 50 mg/kg, ip administered 1 hr prior to pentylenetetrazole-challenge measured up to 1 hr relative to control; format: functional; conditions: route intraperitoneal
Mus musculus [5] = assay: Anticonvulsant activity in ip dosed Mus musculus Swiss albino (mouse) assessed as protection against pentylenetetrazole-induced seizures administered 1 hr prior to pentylenetetrazole-challenge measured up to 1 hr; format: functional; conditions: read-out: PD50
Mus musculus [6] = assay: Toxicity in Mus musculus albino (mouse) assessed as mortality at 600 to 2400 mg/kg, ip after 24 hr; format: organism-based; set-up: dose 600-2400 mg/kg, route intraperitoneal; conditions: in vivo
Mus musculus [7] = assay: Toxicity in Mus musculus albino (mouse) assessed as mortality at 300 mg/kg, ip after 24 hr; format: organism-based; set-up: dose 300 mg/kg, route intraperitoneal; conditions: in vivo
[8] = Toxicity in ip dosed Mus musculus albino (mouse) after 24 hr; format: organism-based; conditions: in vivo
Mus musculus [9] = assay: Toxicity in Mus musculus albino (mouse) assessed as mortality at 100 mg/kg, ip after 24 hr; format: organism-based; set-up: dose 100 mg/kg, route intraperitoneal; conditions: in vivo
Mus musculus [10] = assay: Anticonvulsant activity in Mus musculus Swiss albino (mouse) assessed as protection against pentylenetetrazole-induced seizures at 10 mg/kg, ip administered 1 hr prior to pentylenetetrazole-challenge measured up to 1 hr relative to control; format: functional; conditions: route intraperitoneal
Mus musculus [11] = assay: Anticonvulsant activity in Mus musculus Swiss albino (mouse) assessed as protection against pentylenetetrazole-induced seizures at 20 mg/kg, ip administered 1 hr prior to pentylenetetrazole-challenge measured up to 1 hr relative to control; format: functional; conditions: route intraperitoneal
Mus musculus [12] = assay: Anticonvulsant activity in Mus musculus Swiss albino (mouse) assessed as protection against pentylenetetrazole-induced seizures at 30 mg/kg, ip administered 1 hr prior to pentylenetetrazole-challenge measured up to 1 hr relative to control; format: functional; conditions: route intraperitoneal
Mus musculus [13] = assay: Toxicity in Mus musculus albino (mouse) assessed as mortality at 160 to 400 mg/kg, ip after 24 hr; format: organism-based; set-up: dose 160-400 mg/kg, route intraperitoneal; conditions: in vivo

SMILES | Activity (Mus musculus [1]) | Activity (Mus musculus [2]) | Activity (Mus musculus [3]) | Activity (Mus musculus [4]) | ED50 (Mus musculus [5]) | Activity (Mus musculus [6]) | Activity (Mus musculus [7]) | LD50 at 24 h [8] | Activity (Mus musculus [9]) | Activity (Mus musculus [10]) | Activity (Mus musculus [11]) | Activity (Mus musculus [12]) | Activity (Mus musculus [13])
N#Cc1c(NC(=O)CCCCl)c(C(=O)Nc2ccc(Cl)cc2)n2c1CCC2 | 40% | 19.7% | 40% | 20% | 117 mg/kg | – | – | – | – | – | – | – | –
N#Cc1c(N2CCCC2=O)c(C(=O)Nc2ccccc2)n2c1CCC2 | 0% | 34.2% | 20% | 60% | 55.6 mg/kg | – | – | – | – | – | – | – | –
Cc1ccc(NC(=O)c2c(N3CCCC3=O)c(C#N)c3n2CCC3)cc1 | 0% | 67.9% | 0% | 40% | 29.2 mg/kg | Toxic | Non-toxic | 1010 mg/kg | – | – | – | – | –
N#Cc1c(N2CCCC2=O)c(C(=O)Nc2ccc(Cl)cc2)n2c1CCC2 | 0% | 55.8% | 20% | 40% | 37.5 mg/kg | – | – | – | – | – | – | – | –
N#Cc1c(NC(=O)CCl)c(C(=O)Nc2ccccc2)n2c1CCC2 | 40% | 17.3% | 20% | 0% | 112 mg/kg | – | – | – | – | – | – | – | –
Cc1ccc(NC(=O)c2c(NC(=O)CCl)c(C#N)c3n2CCC3)cc1 | 40% | 17.4% | 40% | 20% | 117 mg/kg | – | – | – | – | – | – | – | –
N#Cc1c(NC(=O)CCl)c(C(=O)Nc2ccc(Cl)cc2)n2c1CCC2 | 60% | 24.1% | 40% | 0% | 88.9 mg/kg | – | – | – | – | – | – | – | –
N#Cc1c2c(n3c1CCC3)C(=O)N(c1ccccc1)CC(=O)N2 | 40% | 14.9% | 40% | 20% | 117 mg/kg | – | – | – | – | – | – | – | –
Cc1ccc(N2CC(=O)Nc3c(C#N)c4n(c3C2=O)CCC4)cc1 | 20% | 10.9% | 20% | 0% | 167 mg/kg | – | – | – | – | – | – | – | –
N#Cc1c2c(n3c1CCC3)C(=O)N(c1ccc(Cl)cc1)CC(=O)N2 | 20% | 10.6% | 0% | 0% | 183 mg/kg | – | – | – | – | – | – | – | –
CN1C(=O)CN(c2ccccc2)C(=O)c2c1c(C#N)c1n2CCC1 | 40% | 16.2% | 20% | 0% | 112 mg/kg | – | – | – | – | – | – | – | –
Cc1ccc(N2CC(=O)N(C)c3c(C#N)c4n(c3C2=O)CCC4)cc1 | 20% | 11.4% | 20% | 0% | 167 mg/kg | – | – | – | – | – | – | – | –
CN1C(=O)CN(c2ccc(Cl)cc2)C(=O)c2c1c(C#N)c1n2CCC1 | 40% | 15.1% | 20% | 20% | 133 mg/kg | – | – | – | – | – | – | – | –
N#Cc1c(NC(=O)CCCCl)c(C(=O)Nc2ccccc2)n2c1CCC2 | 60% | 23.7% | 40% | 0% | 88.9 mg/kg | – | – | – | – | – | – | – | –
Cc1ccc(NC(=O)c2c(NC(=O)CCCCl)c(C#N)c3n2CCC3)cc1 | 40% | 19.4% | 20% | 0% | 112 mg/kg | – | – | – | – | – | – | – | –
CCC1(c2ccccc2)C(=O)NC(=O)NC1=O [PHENOBARBITAL] | – | – | – | – | 14.4 mg/kg | – | – | 251 mg/kg | Non-toxic | 40% | 60% | 100% | Toxic

From ChEMBL document CHEMBL3045469, “Design, synthesis and preliminary evaluation of some novel [1,4]diazepino [5,6-b]pyrrolizine and 6-(2-oxopyrrolidino)-1H-pyrrolizine derivatives as anticonvulsant agents” (Med Chem Res, 2011)
